The assay relates to S. aureus ATCC 6538. Kind of assay: Porcine deep partial-thickness wound model inoculated with S. aureus; planktonic (flush) and biofilm (scrub) bacterial counts on day 2. Format: in vivo, Staphylococcus aureus. The protocol:
Summarily, forty-four deep, partial-thickness wounds were created on the paravertebral area on two pigs. Four wounds each were randomly assigned to eleven treatment groups and inoculated with S. aureus ATCC 6538. Wounds were treated with approximately 200 mg of each treatment. On day 2, wounds were assessed using a flush and scrub technique to recover planktonic and biofilm-associated bacterial count, respectively.
Swine (2 animals) were used as the experimental animal due to the morphological, physiological, and biochemical similarities between swine skin and human skin.
• 44 deep partial thickness wounds measuring 10 mm×7 mm×0.5 mm were made in the peravertebral and thoracic areas of each animal • 4 wounds were randomly assigned to each of the 11 treatment groups Inoculation: • 25 μl of inoculum of 10^6 CFU/ml were inoculated into each wound and scrubbed lightly using a sterile Teflon spatula. Experimental Design: Pig 1: Treatment Groups
• Within 20 minutes of inoculation each wound was treated with the appropriate treatment. Each wound was treated with ≅200 mg of the appropriate treatment (days 0 and 1). • All wounds were covered with polyurethane film dressings Wound Recovery: • A sterile surgical steel cylinder (22 mm inside diameter) was placed over the wound area and 1 ml of all-purpose neutralizer solution was pipetted inside. • The site was gently flushed by pipetting in and out three times to remove the loosely attached bacteria (a), this aliquot represents the planktonic bacteria. • The same wound was then encircled using another sterile cylinder and 1 ml of all-purpose neutralizer solution was again pipetted into the cylinder and this time scrubbed with a sterile Teflon spatula for 30 seconds to remove the firmly attached bacteria (b), this aliquot was aspirated and represents biofilm bacteria.

Where [1] appears, read: swine wounds, 30000 μM (=15 mg/ml) DTPA used alone, topical, day 2.

Regarding “diethylenetriamine pentaacetic acid [DTPA]”, for the setting “30000 μM DTPA alone”, the “reduction of S. aureus counts compared to the untreated group” value is 99.96%. Besides, under “all concentrations of DTPA alone (30 to 30000 μM)”, the “bacterial counts (planktonic and biofilm) versus untreated control wounds” value is “reduced bacterial counts”. Besides, under setting [1], the biofilm count was 6.09±012 Log CFU/ml and the planktonic bacterial count was determined as 5.19±0.29 Log CFU/ml.

Take “gentamicin [Gentamicin 0.1%, reference compound]”: the “reduction in wound bioburden versus DTPA alone” value (0.1% Gentamicin positive control compared with all DTPA concentrations alone) was “substantially more reduction in wound bioburden than any of the DTPA concentrations alone”.

The record behind these values is patent US10124064B2, “Antimicrobial compositions of aminoglycosidic antibiotics and zinc ion chelators specifically formulated for enhanced inhibition of bacterial colonization and antibacterial efficacy” (University of Cincinnati, priority 2013, dated 2018).
